Activity calls are given as the source filed them.
Key:
Assay type in all cases: functional, cell-based
MCF7 = experiment: Cytotoxicity against human MCF7 cells assessed as reduction in cell viability at 10 uM by MTT assay
HepG2 = experiment: Cytotoxicity against human HepG2 cells assessed as reduction in cell viability at 10 uM by MTT assay
HeLa = experiment: Cytotoxicity against human HeLa cells assessed as reduction in cell viability at 10 uM by MTT assay
A549 = experiment: Cytotoxicity against human A549 cells assessed as reduction in cell viability at 10 uM by MTT assay

Measured: Activity

COc1ccc(-c2coc3c(CC=C(C)C)c(O)ccc3c2=O)cc1
inactive: MCF7 | HepG2 | HeLa | A549

COc1ccc(C2COc3cc4c(cc3C2)C=CC(C)(C)O4)c(O)c1 (configuration not stated)
inactive: MCF7 | HepG2 | HeLa | A549

CC(C)=CCc1c(O)ccc2c1OC[C@@H](c1ccc(O)cc1O)C2=O
inactive: MCF7 | HepG2 | HeLa | A549

CC(C)=CCc1cc2c(cc1O)OC[C@H](c1ccc(O)cc1O)[C@@H]2c1cc2c(c(CC=C(C)C)c1O)OC[C@@H](c1ccc(O)cc1O)C2
inactive: MCF7 | HepG2 | HeLa | A549

CC1(C)CCc2c(ccc3c2OC[C@@H](c2ccc(O)cc2O)C3=O)O1
inactive: MCF7 | HepG2 | HeLa | A549

CC(C)=CCc1c(O)ccc([C@@H]2COc3c(ccc(O)c3CC=C(C)C)C2)c1O
inactive: MCF7 | HepG2 | HeLa | A549

CC(C)=CCc1c(O)ccc([C@@H]2COc3c(ccc(O)c3CC=C(C)C)C2=O)c1O
inactive: MCF7 | HepG2 | HeLa | A549

CC1(C)CCc2c(ccc3c2OC[C@@H](c2ccc(O)cc2O)C3)O1
inactive: MCF7 | HepG2 | HeLa | A549

CC(C)=CCc1cc2c(cc1O)OC[C@H](c1ccc(O)cc1O)[C@@H]2c1cc([C@H]2COc3c(ccc(O)c3CC=C(C)C)C2)c(O)cc1O
inactive: MCF7 | HepG2 | HeLa | A549

COc1ccc(-c2coc3cc(O)ccc3c2=O)cc1
inactive: MCF7 | HepG2 | HeLa | A549

CC(C)=CCc1c(O)ccc2c1OC[C@H](c1cc([C@@H]3c4ccc(O)c(CC=C(C)C)c4OC[C@@H]3c3ccc(O)cc3O)c(O)cc1O)C2
inactive: MCF7 | HepG2 | HeLa | A549

CC(C)=CCc1c(O)ccc2c1OC[C@H](c1ccc(O)cc1O)C2
inactive: MCF7 | HepG2 | HeLa | A549

CC(C)=CCc1cc([C@H]2Oc3cc(O)ccc3C(=O)[C@@H]2O)ccc1O
inactive: MCF7 | HepG2 | HeLa | A549

CC(C)=CCc1cc([C@H]2Oc3cc(O)cc(O)c3C(=O)[C@@H]2O)ccc1O
inactive: MCF7 | HepG2 | HeLa | A549

CC(C)(O)CCc1c(O)ccc2c1OC[C@H](c1ccc(O)cc1O)C2
inactive: MCF7 | HepG2 | HeLa | A549

CC(C)=CCc1cc([C@@H]2CC(=O)c3ccc(O)cc3O2)ccc1O
inactive: MCF7 | HepG2 | HeLa | A549

COc1cc(O)ccc1[C@H]1COc2cc(O)ccc2[C@H]1c1cc2c(c(CC=C(C)C)c1O)OC[C@@H](c1ccc(O)cc1O)C2
inactive: MCF7 | HepG2 | HeLa | A549

CC(C)=CCc1c(O)cc(O)cc1/C=C/c1ccc(O)cc1
inactive: MCF7 | HepG2 | HeLa | A549

COc1ccc([C@H]2COc3c(ccc(O)c3CC=C(C)C)C2)c(O)c1
inactive: MCF7 | HepG2 | HeLa | A549

COc1ccc([C@@H]2COc3c(ccc(O)c3CC=C(C)C)C2=O)c(O)c1
inactive: MCF7 | HepG2 | HeLa | A549

O=C(O)/C=C1/c2ccc(O)cc2O[C@@H]1Cc1ccc(O)cc1
inactive: MCF7 | HepG2 | HeLa | A549

COc1ccc([C@@H]2COc3cc(O)ccc3C2)c(O)c1
inactive: MCF7 | HepG2 | HeLa | A549

COc1ccc(C[C@H]2Oc3cc(O)ccc3/C2=C/C(=O)O)cc1
inactive: MCF7 | HepG2 | HeLa | A549

— ChEMBL document CHEMBL6153095, “Dihydroaurones and Isoflavan Derivatives from the Roots of Glycyrrhiza asymmetrica” (J Nat Prod, 2025)
